Data: US8138196B2, “Antifungal wallboards and building materials and methods for the production thereof” (Syngenta Crop Protection, Inc., priority 2005, dated 2012)

Assays:
Assay in all cases: Example 4 liquid culture assay on 24 and 48 well plates, 3 way mixtures
Type in all cases: cell-based
[1] = system: Alternaria tenuissima (DSM 63360); conditions: A. tenuissima
From the text: (§1) For test 006-2005: Alternaria tenuissima (DSM 63360), Penicillium chrysogenum (DSM 895), Cladosporium cladosporoides (DSM62121), Aspergillus niger (DSM 63263), Aspergillus versicolor (DSM 1943) and Aureobasidium pullulans (ATCC 15233) were separately cultivated on PDA media to […] sporulation. Spore suspensions were produced for each fungus. Spore concentrations of approx. 100,000 spores/ml were used.
(§2) […] Spore suspensions were produced for each fungus. Spore concentrations of approx. 100,000 spores/ml were used.
(§3) Test method used: liquid culture assay on 24 and 48 well plates respectively.
(§4) For testing of the 3 way mixtures each of the formulated fungicide (100 ul) was filled into the 24 and 48 well plates respectively. Afterwards 700 ul of 0.3% AE media was added to the plate. The spore suspension of the specific fungi was added to this media in advance containing approx. 100,000 spores/ml. For testing the solo compounds the equivalent of distilled water was added instead of the formulated fungicide volume of the mixing partners. The plates were then sealed and incubated at 24° C.
(§5) Dependent on the growth properties of each organisms, the evaluation was done after 3 to 6 days, when the surface of the check well was covered with mycelium. The evaluation was performed by assessing the growth of the fungi related to the check growth. The results are expressed as % activity relative to the check (values of 0-100% growth). Afterwards the results were converted in % growth inhibition.
(§6) For the mixtures of different fungicides the synergism was calculated based on the Colby equation, which is described above.

[2] = system: Aspergillus niger (DSM 63263); conditions: A. niger, AZO 0.05 mg ai/l
From the text: as §1
For test 015-2006: Alternaria tenuissima (DSM 63360), Penicillium pinophilum (CBS342.61), Gliocladium virens (DSM1963), Aspergillus niger (DSM 63263), Stachybotrys chartarum (DSM 2144) and Aureobasidium pullulans (ATCC 15233) were separately cultivated on PDA media to […] sporulation. Spore suspensions were produced for each fungus. Spore concentrations of approx. 100,000 spores/ml were used.
as §3, §4, §5, §6

[3] = system: Stachybotrys chartarum (DSM 2144); conditions: test 015-2005, S. chartarum
Description: as §2, §3, §4, §5, §6

CO/C=C(/C(=O)OC)c1ccccc1Oc1cc(Oc2ccccc2C#N)ncn1 [Azoxystrobin]
inh % (AZO alone) ([1]; test 006-2005, AZO 0.05 mg ai/l): 10%
inh % (AZO alone) ([1]; test 006-2005, AZO 0.2 mg ai/l): 10%
inh % (AZO alone) ([1]; test 006-2005, AZO 0.8 mg ai/l): 10%
inh % (AZO alone) ([1]; test 006-2005, AZO 1.6 mg ai/l): 10%
inh % (AZO alone) ([1]; test 006-2005, AZO 3.12 mg ai/l): 10%
inh % (AZO alone) ([1]; test 006-2005, AZO 12.5 mg ai/l): 10%
inh % (AZO alone) ([1]; test 006-2005, AZO 50 mg ai/l): 10%
inh % (AZO alone) ([1]; test 006-2005, AZO 100 mg ai/l): 10%
inh % (AZO alone) ([1]; test 015-2005, AZO 0.05 mg ai/l): 10%
inh % (AZO alone) ([1]; test 015-2005, AZO 0.2 mg ai/l): 10%
inh % (AZO alone) ([2]; test 006-2005): 10%
inh % (AZO alone) ([2]; test 015-2005): 0%
inh % (AZO alone) ([3]; AZO 0.8 mg ai/l): 10%
inh % (AZO alone) ([3]; AZO 1.6 mg ai/l): 10%
inh % (AZO alone) ([3]; AZO 3.1 mg ai/l): 30%
